Five molecules from ChEMBL document CHEMBL3232929, “Thermodynamic and structural characterization of halogen bonding in protein-ligand interactions: a case study of PDE5 and its inhibitors” (J Med Chem, 2014) can be followed below.

The Kd is the constant that tells how readily two partners part at equilibrium.

The target of the assay is cGMP-specific 3',5'-cyclic phosphodiesterase (Homo sapiens, UniProt O76074). Briefly: Binding affinity to recombinant PDE5 catalytic domain (unknown origin) by ITC analysis. For orientation: In ITC the heat of successive injections is recorded.
For the molecule `CCCOc1ccc(S(=O)(=O)N2CCN(C)CC2)cc1-c1nc(CC)cc(=O)[nH]1`, the Kd was determined as 1450 nM.

Regarding `CCCOc1ccc(S(=O)(=O)N2CCN(C)CC2)cc1-c1nc(CC)c(F)c(=O)[nH]1`, the Kd turned out to be 1730 nM.

Take `CCCOc1ccc(S(=O)(=O)N2CCN(C)CC2)cc1-c1nc(CC)c(Cl)c(=O)[nH]1`: the Kd stood at 767 nM.

For the molecule `CCCOc1ccc(S(=O)(=O)N2CCN(C)CC2)cc1-c1nc(CC)c(Br)c(=O)[nH]1`, the Kd came out at 416 nM.

For the molecule `CCCOc1ccc(S(=O)(=O)N2CCN(C)CC2)cc1-c1nc(CC)c(I)c(=O)[nH]1`, the Kd was 152 nM.
